PubChem BioAssay AID2060509 (Molecular Pharmacology Branch, DTP, NCI, 2025)

Test system: 485176-168-R4-J1-PDC spheroids with HUVEC/MSC, viability
Test: Anticancer human tumor 485176-168-R4-J1-PDC patient-derived pancreatic adenocarcinoma cell line growth inhibition [GQUAD]
Settings: for IC50: curve of first compound; for viability, T/C: stronger effect = lower value
Description: DNA G-quadruplex Stabilizer Agents in Combinations in Complex Spheroids
A high-throughput screen of multi-cell type tumor spheroids was designed to identify active combinations of DNA G-quadruplex stabilizer agents and targeted small molecules. Complex spheroids include a stromal component modeled by human endothelial cells (HUVEC) and fibroblasts modeled by human mesenchymal stem cells (MSCs). The concentration ranges selected for each drug and investigational agent were based upon clinically achievable concentrations if the clinical Cmax of the agent was known.
Compounds. The drugs and investigational agents: pidnarulex (CX-5461; NSC782164), APTO-253 (NSC789042), BRACO-19 (NSC847499), peposertib (NSC802822), ceralasertib (NSC780249), elimusertib (NSC800525), camonsertib (NSC841442), AZD-1390 (NSC803789), olaparib (NSC753686), talazoparib (NSC767125), ART-558 (NSC835418), sotorasib (NSC818433), MRTX-1133 (NSC836407), SN-38 (NSC673596), topotecan (NSC609699), etoposide (NSC141540), doxorubicin (NSC123127), gemcitabine (NSC613327), 5-fluorouracil (NSC19893), paclitaxel (NSC125973), vemurafenib (NSC761431), panobinostat (NSC761190), R-306465 (JNJ-16241199; NSC773264), adavosertib (NSC754352), TP-3654 (NSC805149), carboplatin (NSC241240), KSQ-4279 (NSC840948), and staurosporine (NSC755774) were obtained from the National Cancer Institute (NCI) Developmental Therapeutics Program Chemical Repository (34). The FDA-approved anticancer drug set is available from the NCI Developmental Therapeutics Program. […] The stock solutions were prepared in dimethyl sulfoxide (DMSO, Sigma-Aldrich, St. Louis, MO, cat. D2650) at 800-fold the tested concentration and stored at -70 degrees C prior to their use. All drugs and investigational agents were tested over a range starting from a high concentration at or near the clinical Cmax and decreasing in half-log increments. If the clinical Cmax for an agent had not been determined, the highest concentration tested was 10 microM.
2.3 Cell Culture. All cells were maintained in an incubator at 37 degrees C and 5% CO2 with 95% humidity. The PDC lines were cultured according to standard operating procedures established by the NCI PDMR. All PDCs were thawed and cultured in Matrigel-coated flasks prepared with a working solution of 1X Ham's F-12 nutrient mix, without supplementation (Invitrogen, cat. 11765054), 100 U/mL penicillin-streptomycin (Invitrogen, cat. 15140122), and 2.5% Matrigel (Corning Inc., cat. 354248) for the first three passages. The 857933-349-R-J2-PDC line was cultured in 6C/Colon 1B media, which includes advanced DMEM/F-12 (Thermo Fisher Scientific, cat. 12634028), 10 mM HEPES (Thermo Fisher Scientific, cat. 15630080), 1X GlutaMAX supplement (Thermo Fisher Scientific, cat. 35050061), 0.1 mg/mL primocin (InvivoGen, cat. ant-pm-2), 10% defined fetal bovine serum, heat inactivated (HyClone Laboratories Inc., cat. SH30070.03HI), 50% L-WRN conditioned media (ATCC, cat. CRL-3276), 1.25 mM N-Acetyl-L-cysteine (Sigma-Aldrich, cat. A9165), 10 mM nicotinamide (Sigma-Aldrich, cat. N0636), 1X B-27 supplement (Thermo Fisher Scientific, cat. 17504044), 1X N-2 supplement (Thermo Fisher Scientific, cat. 17502048), 10 microM Y-27632 dihydrochloride (Tocris Bioscience, cat. 1254), and 50 ng/mL human EGF recombinant protein (Thermo Fisher Scientific, cat. PHG0311). The 485176-168-R4-J1-PDC line was cultured in Panc media, which includes all 6C/Colon 1B media components plus 100 ng/mL human FGF-10 (Thermo Fisher Scientific, cat. 100-26), 500 nM SB-431542 (Selleckchem, cat. S1067), and gastrin (Tocris, cat. 3006).
[…]

[1] = second compound 0.0316 µM, first compound 0.0316 µM
[2] = second compound 0.0316 µM, first compound 0.1 µM
[3] = second compound 0.0316 µM, first compound 0.316 µM
[4] = second compound 0.0316 µM, first compound 1 µM
[5] = second compound 0.0316 µM, first compound 3.16 µM
[6] = second compound 0.0316 µM, first compound 10 µM
[7] = second compound 0.1 µM, first compound 0.0316 µM
[8] = second compound 0.1 µM, first compound 0.1 µM
[9] = second compound 0.1 µM, first compound 0.316 µM
[10] = second compound 0.1 µM, first compound 1 µM
[11] = second compound 0.1 µM, first compound 3.16 µM
[12] = second compound 0.1 µM, first compound 10 µM
[13] = second compound 0.316 µM, first compound 0.0316 µM
[14] = second compound 0.316 µM, first compound 0.1 µM
[15] = second compound 0.316 µM, first compound 0.316 µM
[16] = second compound 0.316 µM, first compound 1 µM
[17] = second compound 0.316 µM, first compound 3.16 µM
[18] = second compound 0.316 µM, first compound 10 µM
[19] = second compound 1 µM, first compound 0.0316 µM
[20] = second compound 1 µM, first compound 0.1 µM
[21] = second compound 1 µM, first compound 0.316 µM
[22] = second compound 1 µM, first compound 1 µM
[23] = second compound 1 µM, first compound 3.16 µM
[24] = second compound 1 µM, first compound 10 µM
[25] = second compound 3.16 µM, first compound 0.0316 µM
[26] = second compound 3.16 µM, first compound 0.1 µM
[27] = second compound 3.16 µM, first compound 0.316 µM
[28] = second compound 3.16 µM, first compound 1 µM
[29] = second compound 3.16 µM, first compound 3.16 µM
[30] = second compound 3.16 µM, first compound 10 µM
[31] = second compound 10 µM, first compound 0.0316 µM
[32] = second compound 10 µM, first compound 0.1 µM
[33] = second compound 10 µM, first compound 0.316 µM
[34] = second compound 10 µM, first compound 1 µM
[35] = second compound 10 µM, first compound 3.16 µM
[36] = second compound 10 µM, first compound 10 µM
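Further: spheroids exposed to compounds for seven days before readout.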
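Wherever viability, T/C is given: percent viability relative to DMSO vehicle control wells as 100%.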

Structure (SMILES): COc1cccc2c1C(=O)c1c(O)c3c(c(O)c1C2=O)CC(O)(C(=O)CO)CC3OC1CC(N)C(O)C(C)O1 (stereo unspecified) + Cc1[nH]c2ccc(F)cc2c1-c1nc2c3cccnc3c3ncccc3c2[nH]1
- IC50 (second compound 0.0316 µM): 391 nM
- IC50 (second compound 0.1 µM): 267 nM
- IC50 (second compound 0.316 µM): 259 nM
- IC50 (second compound 1 µM): 433 nM
- IC50 (second compound 3.16 µM): 249 nM
- IC50 (second compound 10 µM): 314 nM
- viability, T/C [1]: 90.1%
- viability, T/C [2]: 71.5%
- viability, T/C [3]: 61.1%
- viability, T/C [4]: 14.7%
- viability, T/C [5]: 4.77%
- viability, T/C [6]: 0.13%
- viability, T/C [7]: 106%
- viability, T/C [8]: 71.6%
- viability, T/C [9]: 49.5%
- viability, T/C [10]: 23.3%
- viability, T/C [11]: 3.92%
- viability, T/C [12]: 0.39%
- viability, T/C [13]: 81.4%
- viability, T/C [14]: 65.9%
- viability, T/C [15]: 47.4%
- viability, T/C [16]: 23.6%
- viability, T/C [17]: 3.52%
- viability, T/C [18]: 0.18%
- viability, T/C [19]: 86.1%
- viability, T/C [20]: 72.5%
- viability, T/C [21]: 60.9%
- viability, T/C [22]: 26.8%
- viability, T/C [23]: 4.08%
- viability, T/C [24]: 0.14%
- viability, T/C [25]: 82.9%
- viability, T/C [26]: 59.3%
- viability, T/C [27]: 52%
- viability, T/C [28]: 24.9%
- viability, T/C [29]: 19.5%
- viability, T/C [30]: 0.2%
- viability, T/C [31]: 82%
- viability, T/C [32]: 70.6%
- viability, T/C [33]: 50.8%
- viability, T/C [34]: 21.8%
- viability, T/C [35]: 3.95%
- viability, T/C [36]: 0.38%

Structure (SMILES): Nc1ccn(C2OC(CO)C(O)C2(F)F)c(=O)n1 (stereo unspecified) + Cc1[nH]c2ccc(F)cc2c1-c1nc2c3cccnc3c3ncccc3c2[nH]1
- IC50 (second compound 0.0316 µM): 50.5 nM
- IC50 (second compound 0.1 µM): 40 nM
- IC50 (second compound 0.316 µM): 42.1 nM
- IC50 (second compound 1 µM): 54.1 nM
- IC50 (second compound 3.16 µM): 54.4 nM
- IC50 (second compound 10 µM): 57.4 nM
- viability, T/C [1]: 71.8%
- viability, T/C [2]: 18.2%
- viability, T/C [3]: 10.3%
- viability, T/C [4]: 9.1%
- viability, T/C [5]: 11.2%
- viability, T/C [6]: 10.4%
- viability, T/C [7]: 56.6%
- viability, T/C [8]: 24.9%
- viability, T/C [9]: 9.79%
- viability, T/C [10]: 9.89%
- viability, T/C [11]: 11.8%
- viability, T/C [12]: 9.87%
- viability, T/C [13]: 58%
- viability, T/C [14]: 25.7%
- viability, T/C [15]: 12%
- viability, T/C [16]: 10.1%
- viability, T/C [17]: 9.86%
- viability, T/C [18]: 11.9%
- viability, T/C [19]: 71.3%
- viability, T/C [20]: 25.6%
- viability, T/C [21]: 9.77%
- viability, T/C [22]: 10.7%
- viability, T/C [23]: 12.2%
- viability, T/C [24]: 12.2%
- viability, T/C [25]: 69.7%
- viability, T/C [26]: 27.8%
- viability, T/C [27]: 10.8%
- viability, T/C [28]: 12.1%
- viability, T/C [29]: 11.2%
- viability, T/C [30]: 13.9%
- viability, T/C [31]: 71.8%
- viability, T/C [32]: 29.8%
- viability, T/C [33]: 10.8%
- viability, T/C [34]: 10.4%
- viability, T/C [35]: 10.2%
- viability, T/C [36]: 10.8%

Structure (SMILES): O=C(c1cc(Cc2n[nH]c(=O)c3ccccc23)ccc1F)N1CCN(C(=O)C2CC2)CC1 + Cc1cnc(CNC(=O)c2c(=O)c3ccc(N4CCCN(C)CC4)nc3n3c2sc2ccccc23)cn1
- IC50 (second compound 0.0316 µM): > 10000 nM
- IC50 (second compound 0.1 µM): > 10000 nM
- IC50 (second compound 0.316 µM): > 10000 nM
- IC50 (second compound 1 µM): < 31.6 nM
- IC50 (second compound 3.16 µM): < 31.6 nM
- IC50 (second compound 10 µM): < 31.6 nM
- viability, T/C [1]: 92.7%
- viability, T/C [2]: 74.2%
- viability, T/C [3]: 85.1%
- viability, T/C [4]: 71%
- viability, T/C [5]: 68.4%
- viability, T/C [6]: 75.7%
- viability, T/C [7]: 63.5%
- viability, T/C [8]: 75.8%
- viability, T/C [9]: 63.4%
- viability, T/C [10]: 64.4%
- viability, T/C [11]: 75.8%
- viability, T/C [12]: 59.2%
- viability, T/C [13]: 57.2%
- viability, T/C [14]: 52.8%
- viability, T/C [15]: 60.7%
- viability, T/C [16]: 59.2%
- viability, T/C [17]: 54.2%
- viability, T/C [18]: 45.6%
- viability, T/C [19]: 44.8%
- viability, T/C [20]: 43.7%
- viability, T/C [21]: 52.6%
- viability, T/C [22]: 42.6%
- viability, T/C [23]: 48.4%
- viability, T/C [24]: 42.6%
- viability, T/C [25]: 47.4%
- viability, T/C [26]: 43.7%
- viability, T/C [27]: 38.4%
- viability, T/C [28]: 38.6%
- viability, T/C [29]: 41.6%
- viability, T/C [30]: 35.8%
- viability, T/C [31]: 43.5%
- viability, T/C [32]: 39.7%
- viability, T/C [33]: 42.1%
- viability, T/C [34]: 38.4%
- viability, T/C [35]: 35.6%
- viability, T/C [36]: 35.4%
